Measurements: ChEMBL document CHEMBL4680156, “Discovery of novel pyrido-pyrrolidine hybrid compounds as alpha-glucosidase inhibitors and alternative agent for control of type 1 diabetes” (Eur J Med Chem, 2020)

What was measured:
[1] = Inhibition of Saccharomyces cerevisiae alpha-glucosidase using PNPG as substrate incubated for 10 mins by spectrophotometric method
[2] = biological target: T1, Tissue alpha-L-fucosidase (Bos taurus, UniProt Q2KIM0); assay: Inhibition of bovine kidney alpha-fucosidase using […] as substrate incubated for 10 mins by spectrophotometric method
T1 sequence (Q2KIM0 whole entry): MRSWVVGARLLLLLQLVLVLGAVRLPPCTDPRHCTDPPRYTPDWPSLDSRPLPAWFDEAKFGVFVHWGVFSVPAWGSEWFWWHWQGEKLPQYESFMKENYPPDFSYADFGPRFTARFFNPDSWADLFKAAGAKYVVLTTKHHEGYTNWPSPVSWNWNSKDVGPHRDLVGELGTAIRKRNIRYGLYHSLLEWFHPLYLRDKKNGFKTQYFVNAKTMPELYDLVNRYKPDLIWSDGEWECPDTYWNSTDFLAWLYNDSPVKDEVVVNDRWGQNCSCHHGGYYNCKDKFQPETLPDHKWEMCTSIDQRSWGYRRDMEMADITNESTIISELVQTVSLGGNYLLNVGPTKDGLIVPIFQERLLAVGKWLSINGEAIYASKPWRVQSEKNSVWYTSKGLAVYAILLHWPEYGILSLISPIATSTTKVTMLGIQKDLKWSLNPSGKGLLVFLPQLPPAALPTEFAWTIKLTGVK

Alpha-mannosidase = biological target: T2, Alpha-mannosidase (Canavalia ensiformis, UniProt C0HJB3); assay: Inhibition of jack bean alpha-mannosidase using […] as substrate incubated for 10 mins by spectrophotometric method
T2 sequence (C0HJB3 whole entry): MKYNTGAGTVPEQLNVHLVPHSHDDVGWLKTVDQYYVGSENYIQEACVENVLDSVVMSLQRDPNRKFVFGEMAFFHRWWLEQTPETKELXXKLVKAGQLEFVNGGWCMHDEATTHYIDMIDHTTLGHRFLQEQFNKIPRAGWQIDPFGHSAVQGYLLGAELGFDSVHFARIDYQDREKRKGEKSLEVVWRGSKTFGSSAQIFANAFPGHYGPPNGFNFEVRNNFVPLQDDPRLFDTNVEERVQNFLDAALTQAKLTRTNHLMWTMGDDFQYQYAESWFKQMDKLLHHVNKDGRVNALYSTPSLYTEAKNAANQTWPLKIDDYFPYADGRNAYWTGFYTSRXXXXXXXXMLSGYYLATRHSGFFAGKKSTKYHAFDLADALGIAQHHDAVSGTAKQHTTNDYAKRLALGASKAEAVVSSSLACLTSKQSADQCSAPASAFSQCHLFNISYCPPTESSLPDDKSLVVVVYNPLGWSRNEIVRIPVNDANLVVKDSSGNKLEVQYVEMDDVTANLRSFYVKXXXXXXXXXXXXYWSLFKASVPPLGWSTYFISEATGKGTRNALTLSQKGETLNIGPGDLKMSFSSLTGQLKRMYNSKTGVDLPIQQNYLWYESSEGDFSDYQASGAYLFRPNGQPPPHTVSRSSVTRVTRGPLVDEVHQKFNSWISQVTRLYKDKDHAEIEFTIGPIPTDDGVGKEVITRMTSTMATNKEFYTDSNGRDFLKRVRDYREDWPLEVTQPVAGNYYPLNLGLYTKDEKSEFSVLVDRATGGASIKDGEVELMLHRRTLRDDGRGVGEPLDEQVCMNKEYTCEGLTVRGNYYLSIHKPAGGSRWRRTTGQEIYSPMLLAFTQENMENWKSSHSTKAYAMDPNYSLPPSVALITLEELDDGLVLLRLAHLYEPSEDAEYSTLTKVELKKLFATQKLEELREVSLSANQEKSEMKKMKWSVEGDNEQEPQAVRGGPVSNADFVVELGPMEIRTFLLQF

[3] = Non-competitive inhibition of rat intestinal alpha-glucosidase; assay type: tissue-based, Intestine
[4] = biological target: T3, Alpha-mannosidase (Canavalia ensiformis) (UniProt C0HJB3); assay: Inhibition of jack bean alpha-mannosidase at 1 mM using […] as substrate incubated for 10 mins by spectrophotometric method
T3 sequence (whole entry): T2 sequence (C0HJB3 whole entry)

[5] = Inhibition of Saccharomyces cerevisiae alpha-glucosidase using pNPG as substrate preincubated for 15 mins followed by substrate addition and measured after 30 mins by spectrophotometric analysis

Row | SMILES | IC50 [1] [µM] | IC50 [2] [µM] | IC50 (Alpha-mannosidase) [µM] | Ki [3] [µM] | inhibition [4] [%] | IC50 [5] [µM]
1 | CCC/C=C1/OC(=O)c2ccccc21 [(E)-BUTYLIDENEPHTHALIDE] | 7.15 | 82 | 41 | 4.86 | – | –
2 | CCCCCCCCn1cnc2cc(N)c(-c3ccccc3O)cc21 | 5.03 | – | – | – | < 50 | 0.16
